Key:
[1] = Inhibition of GP-pNA conversion to pNA by 2% bovine serum; format: biochemical; conditions: 2% BS in PBS
[2] = Inhibition of GP-pNA conversion to pNA by 2% human serum; format: biochemical; conditions: 2% HS in PBS
[3] = Conversion of prodrugs to parent compound by human serum diluted in PBS; format: in vitro ADME; conditions: 2% HS in PBS
Procedure: (§1) Human and bovine serum were incubated for 3 hr, 6 hr and/or 24 hr at 37° C. in the presence of 50 μM CAM-405. The sera were diluted in PBS at a final concentration of 0.5, 1, 2.5 or 5%. […] The longer the incubation time, and the higher the serum concentration used, the faster the conversion of CAM-405 to CAM-212 occurred (FIG. 4). As also noted for CD26, HS- and BS-catalysed reaction slowed down in function of time, and was not linearly proportional with serum concentration (FIG. 4). These findings provide again evidence for a pronounced feed-back inhibition of dipeptidyl-peptidase activity in human and bovine serum by the released Val-Pro dipeptide. HS was more efficient in converting CAM-405 to CAM-212 than BS (FIG. 4). Since 1% HS is able to hydrolyse ˜20% of 50 μM CAM-405 within 3 hrs of incubation, it could be calculated that undiluted serum would have been able to convert this prodrug amount to its parent compound at a hundred fold higher speed, that is, within 1.8 min, provided that no feed-back inhibition would have occurred (as expected in the intact organism where release of Pro-Val would immediately result in disappearance from the plasma due to several mechanisms including organ uptake, renal excretion, etc.).
Only a very limited amount of NAP-TSAO (but not D-Pro-NAP-TSAO) had been detected (FIG. 6).
(§2) Ten percent BS or HS converted 40 to 70% of PI-2 to PI-1 in one hour (FIG. 10). Two percent BS and HS converted PI-2 to PI-1 by 8% and 25%, respectively. After 4 hrs, 35% and 95% of compound was hydrolyzed by BS and HS, respectively (FIG. 11).
(§3) The TSAO derivatives depicted in FIG. 1 can be synthesised as described below. GlyPro-pNA (GP-pNA), Diprotin A and Val-Pro were purchased from Sigma-Aldrich (Bornem, Belgium). CD26 was purified as described before [De Meester et al. J. Immunol. Methods (1996), 189: 99-105]. Foetal bovine serum (FBS) was obtained from Integro (Dieren, The Netherlands). Human serum represented a pooled serum that was derived from 10 healthy volunteers (blood donors). Human lymphocyte CEM cells were derived from the ATCC (Rockville, Md.).

purified CD26 = biological target: T1, purified CD26 (Homo sapiens, UniProt P27487); assay: Conversion of peptide prodrugs to parent compound by purified CD26 (HPLC); format: biochemical; conditions: purified CD26; within 60 min
T1 construct: made in house
T1 sequence (P27487 whole entry): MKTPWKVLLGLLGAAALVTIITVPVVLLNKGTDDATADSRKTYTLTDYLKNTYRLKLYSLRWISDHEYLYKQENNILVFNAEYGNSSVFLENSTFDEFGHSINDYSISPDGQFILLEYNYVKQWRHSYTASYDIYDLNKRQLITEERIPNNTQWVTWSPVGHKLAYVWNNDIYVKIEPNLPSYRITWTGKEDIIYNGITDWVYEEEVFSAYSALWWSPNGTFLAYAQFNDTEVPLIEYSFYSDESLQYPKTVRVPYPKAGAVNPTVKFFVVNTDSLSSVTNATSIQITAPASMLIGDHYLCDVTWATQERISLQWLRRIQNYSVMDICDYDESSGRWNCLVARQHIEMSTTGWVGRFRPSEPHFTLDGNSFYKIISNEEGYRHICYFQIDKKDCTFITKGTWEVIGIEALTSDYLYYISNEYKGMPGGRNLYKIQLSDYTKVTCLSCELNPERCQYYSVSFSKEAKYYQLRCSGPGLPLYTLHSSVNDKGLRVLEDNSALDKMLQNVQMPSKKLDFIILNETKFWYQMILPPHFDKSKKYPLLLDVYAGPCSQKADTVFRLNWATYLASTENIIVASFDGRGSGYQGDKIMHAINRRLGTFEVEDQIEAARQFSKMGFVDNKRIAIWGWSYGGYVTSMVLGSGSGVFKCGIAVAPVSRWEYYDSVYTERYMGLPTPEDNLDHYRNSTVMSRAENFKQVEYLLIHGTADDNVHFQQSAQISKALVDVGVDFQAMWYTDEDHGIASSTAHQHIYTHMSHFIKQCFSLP
Summary of the method: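 Peptide prodrugs of lipophilic nucleoside analogues were incubated with purified human CD26 at a final concentration of 1.5 milliUnits in PBS at pH 7.5, 37° C, in a 400 μl reaction started by enzyme addition. Samples were mixed with cold methanol to precipitate protein, centrifuged, and the supernatants analysed by reverse-phase HPLC to quantify conversion to the parent compound.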

[4] = Conversion of prodrugs to parent compound by bovine serum diluted in PBS; format: in vitro ADME; conditions: 2% BS in PBS
Procedure: as §1, §2, §3

CD26 = biological target: T2, CD26 (Homo sapiens, UniProt P27487); assay: Inhibition of CD26-catalysed conversion of GP-pNA to GP+pNA (pNA release, absorption at 400 nm); format: biochemical; conditions: 50 μM GP-pNA
T2 construct: made in house
T2 sequence (P27487 whole entry): as above
Procedure: The CD26 catalytic reaction was measured by recording the increase of absorption caused by pNA release at 400 nm.
To reveal whether CD26 recognizes such synthetic di/tripeptide derivatives of lipophilic nucleoside analogues as a substrate, 50 μM CAM-405 or CAM-431 was exposed to 5.7 mUnits of purified CD26, and the conversion of CAM-405 or CAM-431 to respectively CAM-212 or CAM-403 (Val-NAP-TSAO) was recorded in function of incubation time by HPLC analysis. […] The inhibitory activity of any dipeptide can be evaluated by the above mentioned assay.

[5] = time not restated (one hour in the sentence before)

CC(C)CN(C[C@@H](O)[C@H](Cc1ccccc1)NC(=O)O[C@H]1CO[C@H]2OCC[C@H]21)S(=O)(=O)c1ccc(CNC(=O)[C@@H]2CCCN2C(=O)[C@@H](N)C(C)C)cc1 [Val-Pro-PI 1]
Inhibition of GP-pNA conversion to pNA by two percent BS, in words [1]: even more efficiently inhibited | Inhibition of HS-catalysed GP-pNA conversion to pNA, in words [2]: competitively inhibited | Compound hydrolyzed by HS after 4 hrs ([3]; 4 hrs): 95% | Conversion to PI 1 by two percent HS [3, 5]: 25% | Conversion of Val-Pro-PI 1 (PI-2) to PI 1 by purified CD26 within 60 min, in words (purified CD26): completely converted | Compound hydrolyzed by BS after 4 hrs ([4]; 4 hrs): 35% | Conversion to PI 1 by two percent BS [4, 5]: 8% | Inhibition of release of pNA from GP-pNA at 20 μM, in words (CD26; 20 μM): could inhibit | Competition with GP-pNA for CD26 at 100 μM, in words (CD26; 100 μM): efficiently competed

From patent publication US8236756B2, “Prodrugs cleavable by CD26” (Consejo Superior de Investigaciones Clentificas (CSIC), priority 2003, dated 2012)
